Calls of active or inactive are those of the source.
What was measured:
[1] = viability loss in human Jurkat cells – cell-based, luminescence, cytotoxicity control for P. falciparum gametocyte viability project, dose response (AID 1117277); format: functional;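 also: potency reflects loss of cellular ATP meaning fewer viable cells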
[2] = viability inhibitors of stage V gametocytes – luminescence, dose response (AID 1117278); format: functional, cell-based;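 also: gametocytes exposed to compound for 24 hours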
Protein Tat = Protein Tat (Human immunodeficiency virus type 1 group M subtype B (isolate HXB2)(HIV-1), UniProt P04608); format: functional;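 also: tat binding to TAR RNA read out by fluorescence polarization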
Protein Tat, sequence (P04608 whole entry): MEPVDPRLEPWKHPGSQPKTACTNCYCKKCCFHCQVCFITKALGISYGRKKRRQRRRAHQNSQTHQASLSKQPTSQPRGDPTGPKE

[3] = molecular target: T1, Aryl hydrocarbon receptor (Homo sapiens, UniProt P35869); assay: Luminescence-based cell-based high throughput dose response assay for activators of the Aryl Hydrocarbon Receptor (AHR). [Related pubchem assays: 2796 (Primary screen (AHR activators in singlicate)), 2845 (Confirmation screen (AHR activators in triplicate)), 434939 (Counterscreen (PXR activators in triplicate)), 2804 (Summary (AHR activators))]; format: ADME
T1 sequence (P35869 whole entry): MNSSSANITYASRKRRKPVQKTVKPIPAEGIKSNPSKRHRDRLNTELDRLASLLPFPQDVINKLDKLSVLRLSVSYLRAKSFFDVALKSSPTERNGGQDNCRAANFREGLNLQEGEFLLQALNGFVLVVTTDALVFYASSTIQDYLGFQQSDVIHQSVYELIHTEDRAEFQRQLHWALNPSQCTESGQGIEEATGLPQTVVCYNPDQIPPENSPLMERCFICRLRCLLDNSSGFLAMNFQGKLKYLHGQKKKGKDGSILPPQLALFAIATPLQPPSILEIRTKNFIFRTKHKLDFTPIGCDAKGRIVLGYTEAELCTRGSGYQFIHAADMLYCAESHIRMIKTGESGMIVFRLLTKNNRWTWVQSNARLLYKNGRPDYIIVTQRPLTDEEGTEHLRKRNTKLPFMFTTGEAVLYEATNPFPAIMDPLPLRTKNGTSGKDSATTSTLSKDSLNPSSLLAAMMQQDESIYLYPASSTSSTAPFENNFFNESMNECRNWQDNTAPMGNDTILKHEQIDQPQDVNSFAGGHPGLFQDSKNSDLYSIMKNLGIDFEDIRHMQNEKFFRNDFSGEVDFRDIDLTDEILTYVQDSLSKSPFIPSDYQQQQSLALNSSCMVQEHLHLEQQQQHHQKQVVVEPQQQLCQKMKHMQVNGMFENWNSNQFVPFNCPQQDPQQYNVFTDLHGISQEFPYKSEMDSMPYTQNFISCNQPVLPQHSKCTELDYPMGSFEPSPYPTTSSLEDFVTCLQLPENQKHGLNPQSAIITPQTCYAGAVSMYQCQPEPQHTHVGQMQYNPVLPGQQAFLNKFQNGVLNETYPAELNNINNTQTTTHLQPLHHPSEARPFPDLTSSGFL

[4] = Luminescence Cell-Based Dose Response to Identify Activators of Luciferase Translation or Activity in H4-C Neuroglioblastoma Cells. [Related pubchem assays: 1829 (Project Summary), 1814 (Primary HTS)]; format: functional
[5] = Luminescence Cell-Based Dose Confirmation to Identify Activators of 5'UTR Stem-Loop Driven Alpha-Synuclein mRNA Translation in H4 Neuroglioblastoma Cells. [Related pubchem assays: 1829 (Project Summary), 1814 (Primary HTS)]; format: functional
H4 = assay: Luminescence Cell-Based Dose Response HTS to Identify Activators of 5'UTR Stem-Loop Driven Prion Protein mRNA Translation in H4 Neuroglioblastoma Cells. [Related pubchem assays: 1829 (Project Summary), 1814 (Primary HTS)]; format: functional; conditions: Homo sapiens
[6] = Luminescence Cell-Based Dose Response to Identify Activators of 5'UTR Stem-Loop Driven Prion Protein mRNA Translation in H4-C Neuroglioblastoma Cells. [Related pubchem assays: 1829 (Project Summary), 1814 (Primary HTS)]; format: functional
[7] = Luminescence Cell-Based Dose Response HTS to Identify Activators of Luciferase Translation or Activity in H4 […] Cells. [Related pubchem assays: 1829 (Project Summary), 1814 (Primary HTS)]; format: functional
[8] = molecular target: E3 ubiquitin-protein ligase Mdm2 (Homo sapiens, UniProt Q00987); assay: MDM2-luc reporter signal enhancers, multi-concentration potency testing, MDM2 ubiquitin-protein ligase inhibitor program, whole-cell format, luminescence detection, 384-well microplate (AID 1394); format: functional;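 also: MDM2 E3 inhibitors raise luminescence so EC50 is for signal enhancement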
E3 ubiquitin-protein ligase Mdm2, sequence (Q00987 whole entry): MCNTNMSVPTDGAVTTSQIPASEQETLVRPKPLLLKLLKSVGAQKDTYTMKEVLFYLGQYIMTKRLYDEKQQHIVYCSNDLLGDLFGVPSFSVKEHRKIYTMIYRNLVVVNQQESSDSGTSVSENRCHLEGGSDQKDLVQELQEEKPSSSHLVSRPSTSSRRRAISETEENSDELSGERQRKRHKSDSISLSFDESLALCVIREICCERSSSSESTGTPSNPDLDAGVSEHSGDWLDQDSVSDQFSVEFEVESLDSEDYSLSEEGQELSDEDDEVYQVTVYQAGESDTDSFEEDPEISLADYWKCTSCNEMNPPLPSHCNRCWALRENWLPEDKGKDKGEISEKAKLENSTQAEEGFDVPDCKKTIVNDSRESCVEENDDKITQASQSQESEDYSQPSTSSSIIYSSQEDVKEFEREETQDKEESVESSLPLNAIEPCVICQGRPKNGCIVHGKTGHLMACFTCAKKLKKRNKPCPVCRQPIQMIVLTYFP

[9] = viability loss in THP-1 monocytes – THP-1 cells, cytotoxicity control for Vif-APOBEC3G degradation inhibitor project, dose response (AID 1117359); format: functional; conditions: THP-1
[10] = molecular target: T2, Mannose-6-phosphate isomerase (Homo sapiens, UniProt P34949); assay: MPI enzyme activity inhibition – biochemical, fluorescence intensity, coupled assay, primary screen (AID 1209)
T2 sequence (P34949 whole entry): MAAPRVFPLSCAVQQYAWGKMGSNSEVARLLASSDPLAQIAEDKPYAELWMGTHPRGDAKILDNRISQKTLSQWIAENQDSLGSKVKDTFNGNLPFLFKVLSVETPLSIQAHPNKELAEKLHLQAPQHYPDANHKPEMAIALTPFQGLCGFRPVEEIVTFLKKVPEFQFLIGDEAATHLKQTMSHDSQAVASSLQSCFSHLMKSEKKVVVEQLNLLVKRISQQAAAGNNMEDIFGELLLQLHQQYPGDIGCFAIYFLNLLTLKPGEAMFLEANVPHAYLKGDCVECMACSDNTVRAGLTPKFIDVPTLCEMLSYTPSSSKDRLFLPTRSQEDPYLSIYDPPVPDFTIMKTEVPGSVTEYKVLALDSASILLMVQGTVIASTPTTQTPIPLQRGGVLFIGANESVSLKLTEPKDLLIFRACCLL

[11] = molecular target: T2, Mannose-6-phosphate isomerase; assay: MPI inhibition at elevated mannose 6-phosphate – biochemical, fluorescence intensity, high mannose 6-phosphate, primary screen (AID 1220)
[12] = molecular target: Voltage-gated inwardly rectifying potassium channel KCNH2 (Homo sapiens, UniProt Q12809); assay: concentration-dependent hERG rescue from blockers – cell-based, thallium flux, dose response (AID 2121); format: ADME
Voltage-gated inwardly rectifying potassium channel KCNH2, sequence (Q12809 whole entry): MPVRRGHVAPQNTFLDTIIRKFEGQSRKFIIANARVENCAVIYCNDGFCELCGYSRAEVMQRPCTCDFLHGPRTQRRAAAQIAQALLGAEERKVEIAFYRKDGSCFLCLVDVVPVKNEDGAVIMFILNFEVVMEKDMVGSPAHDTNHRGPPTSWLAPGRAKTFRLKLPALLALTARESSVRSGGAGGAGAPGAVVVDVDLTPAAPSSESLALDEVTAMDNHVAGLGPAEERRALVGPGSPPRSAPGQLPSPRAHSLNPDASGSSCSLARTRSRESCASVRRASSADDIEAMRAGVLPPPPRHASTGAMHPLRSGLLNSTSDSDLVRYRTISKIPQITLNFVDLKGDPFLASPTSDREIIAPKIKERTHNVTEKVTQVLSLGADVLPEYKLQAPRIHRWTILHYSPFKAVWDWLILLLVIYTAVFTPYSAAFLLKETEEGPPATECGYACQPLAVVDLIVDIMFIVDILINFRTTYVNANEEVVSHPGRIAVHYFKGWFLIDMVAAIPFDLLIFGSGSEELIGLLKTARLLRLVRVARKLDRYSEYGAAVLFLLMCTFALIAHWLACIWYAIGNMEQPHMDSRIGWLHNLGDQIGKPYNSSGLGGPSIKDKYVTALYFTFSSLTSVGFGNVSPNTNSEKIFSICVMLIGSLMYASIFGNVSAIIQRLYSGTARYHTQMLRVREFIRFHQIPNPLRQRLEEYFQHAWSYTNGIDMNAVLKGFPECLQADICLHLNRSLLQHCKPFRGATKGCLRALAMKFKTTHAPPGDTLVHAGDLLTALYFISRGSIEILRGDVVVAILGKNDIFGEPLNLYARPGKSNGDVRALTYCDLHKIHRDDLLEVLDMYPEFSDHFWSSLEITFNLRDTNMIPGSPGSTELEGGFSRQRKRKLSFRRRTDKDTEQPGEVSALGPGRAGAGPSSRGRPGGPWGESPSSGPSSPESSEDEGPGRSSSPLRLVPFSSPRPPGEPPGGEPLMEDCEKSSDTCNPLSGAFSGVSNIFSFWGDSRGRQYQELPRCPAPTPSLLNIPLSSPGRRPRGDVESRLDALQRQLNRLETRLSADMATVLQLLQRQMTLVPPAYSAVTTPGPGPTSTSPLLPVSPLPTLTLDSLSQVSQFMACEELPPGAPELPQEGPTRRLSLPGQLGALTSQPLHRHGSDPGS

[13] = molecular target: Sphingosine 1-phosphate receptor 2 (Homo sapiens, UniProt O95136); assay: Dose Response Cell Based Assay for Antagonists of the S1P2 Receptor. [Related pubchem assays: 856, 736 ]; format: functional
Sphingosine 1-phosphate receptor 2, sequence (O95136 whole entry): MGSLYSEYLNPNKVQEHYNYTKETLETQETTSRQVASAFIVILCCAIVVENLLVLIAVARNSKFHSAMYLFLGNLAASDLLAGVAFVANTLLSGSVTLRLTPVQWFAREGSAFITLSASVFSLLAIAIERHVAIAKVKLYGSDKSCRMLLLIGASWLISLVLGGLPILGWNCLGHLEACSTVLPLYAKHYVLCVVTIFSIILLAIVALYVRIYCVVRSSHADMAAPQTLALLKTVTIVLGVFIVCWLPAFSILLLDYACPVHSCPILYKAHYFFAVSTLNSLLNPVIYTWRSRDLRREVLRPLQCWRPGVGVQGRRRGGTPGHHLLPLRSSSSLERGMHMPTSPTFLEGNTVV

[14] = molecular target: T3, Apoptotic protease-activating factor 1 (Homo sapiens, UniProt O14727); format: functional
T3 sequence (O14727 whole entry): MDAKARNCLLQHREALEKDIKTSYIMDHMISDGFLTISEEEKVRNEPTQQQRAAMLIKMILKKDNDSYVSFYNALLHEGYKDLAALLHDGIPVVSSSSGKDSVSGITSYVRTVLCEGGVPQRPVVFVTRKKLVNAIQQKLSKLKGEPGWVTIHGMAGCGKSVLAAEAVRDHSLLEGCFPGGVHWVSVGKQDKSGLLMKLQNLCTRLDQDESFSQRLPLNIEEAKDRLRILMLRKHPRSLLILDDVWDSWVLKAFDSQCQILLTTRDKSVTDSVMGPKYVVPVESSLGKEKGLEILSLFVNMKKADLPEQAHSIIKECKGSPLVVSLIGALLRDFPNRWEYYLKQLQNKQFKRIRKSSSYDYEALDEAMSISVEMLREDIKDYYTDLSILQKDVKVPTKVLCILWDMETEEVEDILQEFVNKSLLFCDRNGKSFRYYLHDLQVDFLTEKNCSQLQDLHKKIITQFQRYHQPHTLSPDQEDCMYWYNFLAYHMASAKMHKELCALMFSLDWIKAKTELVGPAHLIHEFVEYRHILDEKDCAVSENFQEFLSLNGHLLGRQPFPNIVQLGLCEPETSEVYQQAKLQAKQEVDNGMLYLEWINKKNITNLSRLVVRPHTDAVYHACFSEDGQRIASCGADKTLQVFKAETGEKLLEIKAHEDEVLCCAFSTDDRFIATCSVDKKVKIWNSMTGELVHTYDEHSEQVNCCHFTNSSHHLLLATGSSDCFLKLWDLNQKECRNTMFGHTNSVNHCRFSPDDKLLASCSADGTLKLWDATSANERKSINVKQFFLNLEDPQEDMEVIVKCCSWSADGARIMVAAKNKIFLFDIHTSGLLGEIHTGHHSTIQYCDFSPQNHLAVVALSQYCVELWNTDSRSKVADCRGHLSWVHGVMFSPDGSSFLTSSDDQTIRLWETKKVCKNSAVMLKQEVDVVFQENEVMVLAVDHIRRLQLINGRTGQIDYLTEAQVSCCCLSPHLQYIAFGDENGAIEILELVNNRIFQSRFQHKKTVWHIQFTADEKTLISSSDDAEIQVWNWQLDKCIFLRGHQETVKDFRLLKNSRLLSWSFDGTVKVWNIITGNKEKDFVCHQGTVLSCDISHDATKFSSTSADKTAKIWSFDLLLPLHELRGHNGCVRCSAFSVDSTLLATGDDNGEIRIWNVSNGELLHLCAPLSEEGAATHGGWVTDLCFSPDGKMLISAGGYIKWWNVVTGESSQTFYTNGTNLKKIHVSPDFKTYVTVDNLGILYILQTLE

[15] = NIH3T3 cell viability loss – ATP luminescence, mouse fibroblasts, counter-screen, dose response (AID 2010); format: functional, cell-based;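 also: cells exposed to compound for about 90 hours before reading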
[16] = system: Streptococcus sp. 'group A'; assay: Streptococcus pyogenes SK(-)GAS viability under kanamycin – luminescence, BacTiterGlo, confirmation, counter-screen for streptokinase expression inhibitor project, dose response (AID 1900); format: functional, organism-based
[17] = Trypanosoma cruzi growth suppression in host cells – NIH3T3 host cells, beta-gal luminescence, confirmation (AID 2044); format: functional, cell-based;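 also: intracellular parasites grown in NIH/3T3 mouse fibroblasts as host cells; luminescent beta-galactosidase reporter signal from transgenic T. cruzi replicating inside host cells; inhibitors lower the luminescence signal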
Streptococcus = assay: GAS UMAA2166 growth inhibition – luminescence, BacTiterGlo, counter-screen for streptokinase expression inhibitor project, dose response (AID 1915); format: functional, organism-based;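 also: potency for reduction of bacterial viability or growth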

CCCN(CCC)C(=O)Cn1c(=O)n(CCC(=O)NCCc2ccccc2)c(=O)c2ccccc21
IC50 [1]: > 83.3 µM (inactive) | IC50 [2]: > 109 µM (inactive)

Cc1ccc(CCC(=O)Nc2ccc(S(N)(=O)=O)cc2)o1
IC50 (Protein Tat): > 100 µM (active)

CCC(=O)NC(=S)Nc1ccc(NC(=O)c2ccco2)c(Cl)c1
EC50 [3]: 4.47 µM (active)

Cc1cc(NC(=O)c2noc3c2CCCCC3)no1
EC50 [4]: 0.648 µM (active) | EC50 [5]: 5.07 µM (active) | EC50 (H4): 32.2 µM (active) | EC50 [6]: 2.21 µM (active) | EC50 [7]: < 0.1 µM (inconclusive)

C/C(=N/Nc1ccc(F)cc1)c1ccc(Cl)s1
EC50 [3]: 4.71 µM (active)

Cc1nc(SCc2ccc(F)cc2)c([N+](=O)[O-])[nH]1
EC50 [8]: 7.19 µM (not active)

[O-][n+]1ccc(C2CC2)cc1
IC50 [1]: > 83.4 µM (inactive) | IC50 [2]: > 109 µM (inactive)

CC(C)NC[C@@H](O)c1ccc(O)c(O)c1
CC50 [9]: > 40 µM (active) | IC50 [10]: > 50 µM (not active) | IC50 [11]: > 50 µM (not active)

O=C(NC(=S)Nc1cc(C(F)(F)F)ccc1Cl)c1ccccc1
EC50 [12]: 0.24 µM (active)

FC(F)(F)c1cnc2c(-c3cccs3)c(-c3nc[nH]n3)sc2c1
IC50 [13]: 13.9 µM (not active)

CCN1C(=O)c2cccc3c(N)ccc1c23
IC50 [14]: 44 µM (active) | IC50 [11]: > 50 µM (not active)

Cn1c(-c2c(N)n(C3CCCC3)c3nc4ccccc4nc23)nc2ccccc21
EC50 [15]: > 30 µM (not active) | EC50 [16]: 0.391 µM (active) | EC50 [17]: 0.905 µM (active) | IC50 [13]: 5.09 µM (active) | EC50 (Streptococcus): 2.96 µM (active)
